Data: ChEMBL document CHEMBL4007495, “Substrate and inhibitor specificity of kynurenine monooxygenase from Cytophaga hutchinsonii” (Bioorg Med Chem Lett, 2017)
Active and inactive are the calls of the source. The calls are words filed in the database; no cut-off is given here.

Tests used:
[1] = Competitive inhibition of Cytophaga hutchinsonii KMO using 5-Br-kynurenine as substrate assessed as decrease in NADPH consumption by UV/Vis spectrophotometer
Cytophaga hutchinsonii [2] = experiment: Activity at Cytophaga hutchinsonii KMO assessed as NADPH consumption by UV/Vis spectrophotometer
Cytophaga hutchinsonii [3] = experiment: Ratio of Kcat to Km for Cytophaga hutchinsonii KMO
Cytophaga hutchinsonii [4] = experiment: Activity at Cytophaga hutchinsonii KMO by ESI-LC/MS method
Cytophaga hutchinsonii [5] = experiment: Activity at Cytophaga hutchinsonii KMO at 0.2 mM after 30 mins by HPLC method

Ki [1] [µM] | Km (Cytophaga hutchinsonii [2]) [µM] | kcat (Cytophaga hutchinsonii [2]) [s⁻¹] | kcat/Km (Cytophaga hutchinsonii [3]) | Structure (SMILES) | also measured
 | 67 | 2 | 5.3 ×10⁴ /M/s | Nc1ccccc1C(=O)C[C@H](N)C(=O)O | 
1000 |  |  |  | COc1ccc(C(=O)NCC(=O)O)cc1OC | 
13.8 |  |  |  | Nc1c(Cl)cccc1C(=O)CC(N)C(=O)O (stereo not drawn) | 
 | 2 | 0.8 | 4 ×10⁵ /M/s | Nc1ccc(Cl)cc1C(=O)C[C@H](N)C(=O)O | 
34 |  |  |  | O=C(O)CNC(=O)c1ccc(Cl)c(Cl)c1 | 
 | 4.5 | 0.6 | 1.3 ×10⁵ /M/s | Nc1ccc(Br)cc1C(=O)C[C@H](N)C(=O)O | Activity (Cytophaga hutchinsonii [4]): Active; Activity (Cytophaga hutchinsonii [5]): Active

More lines, now with the values behind:

Structure (SMILES) | Ki [1] [µM] | Km (Cytophaga hutchinsonii [2]) [µM] | kcat (Cytophaga hutchinsonii [2]) [s⁻¹] | kcat/Km (Cytophaga hutchinsonii [3]) | also measured
Nc1c(Cl)cc(Br)cc1C(=O)CC(N)C(=O)O (stereo not drawn) | 11 |  |  |  | 
Cc1cccc(C(=O)CC(N)C(=O)O)c1N (stereo not drawn) | 8.6 |  |  |  | 
Nc1c(Br)cc(Br)cc1C(=O)C[C@H](N)C(=O)O | 1.5 |  |  |  | 
Cc1cc(Br)cc(C(=O)CC(N)C(=O)O)c1N (stereo not drawn) | 10.2 |  |  |  | 
